Results on one molecule are retold here after PMC6614837 (Nucleic Acids Research, 2019).

The test has as its target T1, RNase P holoenzyme (Thermotoga maritima, UniProt Q9X1H4).
T1 construct: GST (cleaved yes); made in house; host or cells: E. coli BL21(DE3)pLysS
T1 sequence (Q9X1H4 1-117): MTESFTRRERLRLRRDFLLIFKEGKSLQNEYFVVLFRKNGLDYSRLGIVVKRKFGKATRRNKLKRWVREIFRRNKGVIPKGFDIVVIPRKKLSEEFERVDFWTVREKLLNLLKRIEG
Kind of test: Biolayer interferometry binding to immobilized RNase P holoenzyme. Details: species or system T. maritima. The note with it: BLI, holoenzyme at 400 nM immobilized on Ni-NTA. On the procedure:
Real-time binding assays of the holoenzyme, P RNA, P protein, the substrate minihelix and the 5′-leader to individual compounds were performed by biolayer interferometry using an Octet RED96 system (ForteBio). For the holoenzyme or P RNA, a 5′ biotinylated RNA oligonucleotide with the sequence 5′biotin-CAUUCCAGACGAU was immobilized on Super Streptavidin (SSA) biosensors. Then, a modified P RNA or holoenzyme was added. The P RNA modification consisted of a sequence with part of the P1 stem sequence complementary to the biotinylated oligonucleotide (AUCGUCUGGA) (Supplementary Figure S23A). P1 is far from the active site or other regions involved in specific interactions (Supplementary Figure S23B) ([19]). The activity of this construct was indistinguishable from the wild-type holoenzyme. Alternatively, the holoenzyme was immobilized through the His-tagged P protein from T. maritima at 0.05 mg/ml (3.4 μM) on Ni-NTA biosensors. […] Kinetic binding parameters were calculated using Data Analysis 8.2 (ForteBio, Inc.). […]
Figure 4. […] Symbols represent the mean ± standard error as determined from three independent experiments at each concentration. […] RNase P holoenzyme was immobilized on Ni-NTA biosensors, incubated with purpurin at varying concentrations (0–400 μM), and then the association and dissociation pre-tRNA was monitored. […]

Structures are written as SMILES.

Take `O=C1c2ccccc2C(=O)c2c(O)c(O)cc(O)c21` [Purpurin, 1,2,4-trihydroxyanthraquinone]: binding was characterised by a dissociation constant (Kd) of 13.2 µM.

In general, Kd refers to the equilibrium constant for the complex coming apart.
